Laboratory results as given in article PMC7669869, “AdipoR1/AdipoR2 dual agonist recovers nonalcoholic steatohepatitis and related fibrosis via endoplasmic reticulum-mitochondria axis” (Nature Communications, 2020).
Non-standard residues stand in square brackets, D forms with d. Residues, ends and D or L forms follow the SMILES beside them. Nva = CCC[C@H](N)C(=O)O

Assays:
HepG2 cells = experiment: PA induced lipid accumulation, Oil Red O staining; assay type: cell-based, human; settings: HepG2, 0.25 mM PA + 200 μM peptide, 24 h; in words
Method: Hepatoma carcinoma cell line HepG2 and human hepatic activated stellate cell line LX2 used in this study were purchased from Type Culture Collection of the Chinese Academy of Sciences (Shanghai, China). Cells were cultured in Dulbecco’s modified Eagle’s medium (DMEM) with 10% fetal bovine serum (FBS), supplemented with 1% penicillin–streptomycin (ThermoFisher Scientific, USA) at 37 °C in a humidified atmosphere of 5% CO2. In PA (Sigma, USA) induced lipid accumulation cell model, HepG2 cells were seeded into a 6-well plate at 5E5 cells per well. 0.25 mM PA and/or 200 μM candidate peptides were co-incubated with cells for 24 h. Then Oil Red O staining was performed to evaluate the accumulation of lipid droplets. BSA (Sigma, USA) was used in this experiment as the negative control. For LX2 cells, 2E5 cells were seeded, then the adherent cells were exposed to 200 μM candidate peptides for another 48 h. Next, the cell protein was obtained and western blotting was performed. Candidate peptides were diluted in DMEM in a stock concentration of 1 M.

HFD induced NASH mice = experiment: HFD induced NASH (NAFLD) mice: weight gain, liver appearance; assay type: in vivo, mouse; settings: JT003 500 μg kg−1 i.p. daily 4 weeks, vs HFD, in words
Method: Male C57BL/6J mice of 6–8 weeks of age (20–24 g) were used in these experiments including the NAFLD model and liver fibrosis model. The mice were purchased from Guangdong Medical Laboratory Animal Center and housed in standard isolator cages and maintained on a room temperature of 25 °C and a 12 h:12 h light/dark cycle. At the end of the experiments, mice were fasted 8 h prior to sacrifice. Liver tissue and/or epididymal adipose tissue were flash frozen in liquid nitrogen (with or without RNAlater (TransGen Biotech, China)) and stored at −80 °C for future use, or fixed in 10% paraformaldehyde for histological assays. Blood samples were obtained from the posterior venous plexus of the eyes of anesthetized mice, Blood was separated by centrifugation at 1000g for 15 min Serum was then stored at −80 °C. The ethical approval has been obtained from Animal Care and Use Committee of the Sun Yat-sen University. All animals were maintained in pathogen-free conditions and cared for in accordance with policies and certification of the Association for Assessment and Accreditation of Laboratory Animal Care International (AAALAC International).
The NASH model was conducted with feeding a HFD for 16 weeks combine with a MCD diet (Methionine/Choline Deficient Diet, Medicience, China) in the last 4 weeks. […]

[1] = tested on: liver gene expression of HFD induced NASH mice; experiment: HFD mice: liver mRNA, quantitative RT-PCR; assay type: in vivo, mouse; settings: for CD14 liver mRNA, relative expression, Supplementary Figure 11b / F4/80 liver mRNA, relative expression, Supplementary Figure 11b / IL-1b liver mRNA, relative expression, Supplementary Figure 11b / IL-6 liver mRNA, relative expression, Supplementary Figure 11b / LY6G liver mRNA, relative expression, Supplementary Figure 11b / iNOS liver mRNA, relative expression, Supplementary Figure 11b: HFD + JT003 mice
Method: The NASH model was conducted with feeding a HFD for 16 weeks combine with a MCD diet (Methionine/Choline Deficient Diet, Medicience, China) in the last 4 weeks. Mice administered a MCS diet (Methionine/Choline Sufficient Diet, Medicience, China) serves as control group. NAFLD or NASH mice treated with JT003 for 4 weeks were used to evaluate the pharmacological effects (n = 6; 500 μg kg^−1; daily intraperitoneal injection). Food and water were provided ad libitum. The body weight of mice was examined every 3 days. The diet was renewed every 7 days. JT003 was diluted in PBS.
Liver total RNA was extracted by using Trizol reagent following the manufacture’s instruction (TransGen Biotech, China). The concentration of RNA was measured by Nanodrop 2000 (ThermoFisher Scientific, USA). cDNA was transcribed from 10ug total RNA with First Strand cDNA synthesis Super Mix (TransGen Biotech, China). The cDNA was diluted 1/50 and 1.0 uL were used as a template for qPCR. qPCR was performed with SYBR Green qPCR Super Mix (TransGen Biotech, China) in the Light Cycler 480 Real-Time PCR System (Roche, Swiss). Reference gene β-actin was used for data normalization. mRNA expression was analyzed with specific primers listed in Supplementary Table 2.

[2] = tested on: CCl4 induced liver fibrosis mice; experiment: CCl4 mice: serum ALT, AST and liver HYP; assay type: in vivo, mouse; design: AST, Supplementary Figure 14 / HYP, Supplementary Figure 14: unit not given here; settings: for HYP, Supplementary Figure 14 / AST, Supplementary Figure 14: CCl4 + JT003 mice; for HYP, Supplementary Figure 14: liver; for AST, Supplementary Figure 14: serum
Method: Male mice liver fibrosis was induced by intraperitoneal injection of 20% CCl4 (Sigma, USA) diluted in corn oil (Aladdin, China) every 3 days for 6 weeks (n = 6; 5 ml kg^−1 body weight). Mice injected with equivalent volume of corn oil serves as control group (n = 6). Liver fibrosis mice treated with JT003 for 3 weeks were used to evaluated the pharmacological effects (n = 6; 500 μg kg^−1; daily intraperitoneal injection).
The levels of ALT, AST, TC and TG in serum were determined using certain commercial assay kits (Nanjing Jiancheng Bioengineering Institute, China). Fasting adiponectin and insulin were quantified in plasma samples using corresponding commercially available Elisa kits (Cloud-Clone Crop, USA).
The levels of TG and HYP in liver tissue were detected with certain commercial assay kit (Nanjing Jiancheng Bioengineering Institute, China). Formalin-fixed liver tissues were embedded in paraffin, sectioned into 5 μm slices. After deparaffinization and rehydration of the section slices, they were stained with Haematoxylin and Eosin or Periodic Acid-Schiff. For the detection of liver collagen content, Sirius Red staining for collagen was performed. OCT-embedded frozen liver tissues were sectioned into 12 μm slices, and Oil Red O staining was performed. The cryostat-cut slices were stained with freshly prepared Oil Red O working solution for 7 min Two independent experimenters who were blinded to the treatment evaluated the staining slides and analyzed the score for steatosis, glucogen accumulation and collagen proliferation area.

[3] = HFD mice, liver, JT003 500 μg kg−1, in words

CCC[C@H](NC(=O)[C@@H]1CCCN1)C(=O)N[C@@H](CC(C)C)C(=O)N[C@@H](Cc1ccc(O)cc1)C(=O)N[C@@H](Cc1ccc(O)cc1)C(=O)N[C@@H](Cc1ccccc1)C(=O)N[C@@H](C)C(N)=O [JT003] (H-P[Nva]LYYFA-NH2)
lipid droplets accumulation caused by PA (Oil Red O) (HepG2 cells): exhibited the best potential | weight gain (HFD induced NASH mice): significantly reduced the weight gain | CD14 liver mRNA, relative expression, Supplementary Figure 11b ([1]; replicate 1): 0.836 | F4/80 liver mRNA, relative expression, Supplementary Figure 11b ([1]; replicate 1): 1.324 | IL-1b liver mRNA, relative expression, Supplementary Figure 11b ([1]; replicate 1): 0.2358 | IL-6 liver mRNA, relative expression, Supplementary Figure 11b ([1]; replicate 1): 0.3838 | LY6G liver mRNA, relative expression, Supplementary Figure 11b ([1]; replicate 1): 1.539 | iNOS liver mRNA, relative expression, Supplementary Figure 11b ([1]; replicate 1): 0.7587 | CD14 liver mRNA, relative expression, Supplementary Figure 11b ([1]; replicate 2): 0.7038 | F4/80 liver mRNA, relative expression, Supplementary Figure 11b ([1]; replicate 2): 1.41 | IL-1b liver mRNA, relative expression, Supplementary Figure 11b ([1]; replicate 2): 0.3558 | IL-6 liver mRNA, relative expression, Supplementary Figure 11b ([1]; replicate 2): 0.9338 | LY6G liver mRNA, relative expression, Supplementary Figure 11b ([1]; replicate 2): 2.089 | iNOS liver mRNA, relative expression, Supplementary Figure 11b ([1]; replicate 2): 1.076 | CD14 liver mRNA, relative expression, Supplementary Figure 11b ([1]; replicate 3): 0.548 | F4/80 liver mRNA, relative expression, Supplementary Figure 11b ([1]; replicate 3): 0.6014 | IL-1b liver mRNA, relative expression, Supplementary Figure 11b ([1]; replicate 3): 0.1532 | IL-6 liver mRNA, relative expression, Supplementary Figure 11b ([1]; replicate 3): 0.2832 | LY6G liver mRNA, relative expression, Supplementary Figure 11b ([1]; replicate 3): 0.8264 | iNOS liver mRNA, relative expression, Supplementary Figure 11b ([1]; replicate 3): 1.076 | CD14 liver mRNA, relative expression, Supplementary Figure 11b ([1]; replicate 4): 0.7504 | F4/80 liver mRNA, relative expression, Supplementary Figure 11b ([1]; replicate 4): 1.0118 | IL-1b liver mRNA, relative expression, Supplementary Figure 11b ([1]; replicate 4): 0.1494 | IL-6 liver mRNA, relative expression, Supplementary Figure 11b ([1]; replicate 4): 0.2961 | LY6G liver mRNA, relative expression, Supplementary Figure 11b ([1]; replicate 4): 2.4 | iNOS liver mRNA, relative expression, Supplementary Figure 11b ([1]; replicate 4): 0.5084 | CD14 liver mRNA, relative expression, Supplementary Figure 11b ([1]; replicate 5): 0.8521 | F4/80 liver mRNA, relative expression, Supplementary Figure 11b ([1]; replicate 5): 0.7678 | IL-1b liver mRNA, relative expression, Supplementary Figure 11b ([1]; replicate 5): 0.1331 | IL-6 liver mRNA, relative expression, Supplementary Figure 11b ([1]; replicate 5): 0.3878 | iNOS liver mRNA, relative expression, Supplementary Figure 11b ([1]; replicate 5): 1.435 | F4/80 liver mRNA, relative expression, Supplementary Figure 11b ([1]; replicate 6): 1.044 | IL-6 liver mRNA, relative expression, Supplementary Figure 11b ([1]; replicate 6): 0.3111 | G6Pase expression level in liver ([1]; HFD mice, JT003 500 μg kg−1, compared to HFD mice, in words): significantly elevated | expression of antioxidant enzymes (SOD and CAT) and mitochondrial biogenesis regulators (PGC1α and PGC1β) [1, 3]: accelerated prominently | expression of genes related to fatty acid synthesis (PPARγ, ACC1, FASN, DGAT1, FAS, SCD1, ASCL3), fatty acid uptake (CD36) and cholesterol synthesis (HMGCR, SREBP-1C) [1, 3]: significantly inhibited | expression of genes responsible for fatty acid β-oxidation (LCAD, MCAD, UCP2, CPT1α) [1, 3]: much higher | overexpression of genes related to inflammation (LY6G, F4/80, IL-6, IL-1β, iNOS, CD14) and ER stress (XBP1, ATF4, CHOP, BID and GRP78) [1, 3]: suppressed significantly | upregulation of genes related to mitochondrial dysfunction (CYP2E1, BAX, NQO1, SRXN1 and GPX1) [1, 3]: suppressed remarkably | HYP, Supplementary Figure 14 ([2]; replicate 1): 4.654 | HYP, Supplementary Figure 14 ([2]; replicate 2): 11.7831 | HYP, Supplementary Figure 14 ([2]; replicate 3): 12.1297 | AST, Supplementary Figure 14 ([2]; replicate 1): 54.5376 | AST, Supplementary Figure 14 ([2]; replicate 2): 45.2431 | AST, Supplementary Figure 14 ([2]; replicate 3): 22.8392 | AST, Supplementary Figure 14 ([2]; replicate 4): 27.6777 | AST, Supplementary Figure 14 ([2]; replicate 5): 24.2523 | AST, Supplementary Figure 14 ([2]; replicate 6): 28.6282 | ALT, AST and HYP activities ([2]; CCl4 mice, JT003 500 μg kg−1 i.p. daily 3 weeks, in words): notably diminished
